In brackets after ≈: the same amount, converted by molar mass. Structures can show the parent of a compound that is named as a salt.
Assays:
Format in all cases: cell-based
K. pneumoniae NCTC-9632 = test: antimicrobial activity in vitro, MIC by agar plate dilution method, K. pneumoniae NCTC-9632; details: Klebsiella pneumoniae, NCTC9632, inoculum 1×10^6 cells/ml, read-out: minimal inhibitory concentration (MIC)
Method: (§1) In order to investigate the in vitro activity of the under-mentioned compounds against various bacteria, the minimal inhibitory concentration (MIC) values were determined by the agar plate dilution method [see Chemotherapy, 22, 1126-1128 (1974)].
(§2) Each test inoculum was adjusted to 1×10^6 cells/ml (O.D., 600 mμ: 0.07-0.16).

S. aureus FDA-209-p = test: antimicrobial activity in vitro, MIC by agar plate dilution method, S. aureus FDA-209-p; details: Staphylococcus aureus, FDA209, inoculum 1×10^6 cells/ml, read-out: minimal inhibitory concentration (MIC)
Method: as §1, §2

E. coli NIHJ = test: antimicrobial activity in vitro, MIC by agar plate dilution method, E. coli NIHJ; details: Escherichia coli, inoculum 1×10^6 cells/ml, read-out: minimal inhibitory concentration (MIC)
Method: as §1, §2

S. marcescens IFO-12648 = test: antimicrobial activity in vitro, MIC by agar plate dilution method, S. marcescens IFO-12648; details: Serratia marcescens, IFO12648, inoculum 1×10^6 cells/ml, read-out: minimal inhibitory concentration (MIC)
Method: as §1, §2

E. coli No. 29 = test: antimicrobial activity in vitro, MIC by agar plate dilution method, E. coli No. 29; details: Escherichia coli, inoculum 1×10^6 cells/ml, read-out: minimal inhibitory concentration (MIC)
Method: as §1, §2

P. mirabilis 1287 = test: antimicrobial activity in vitro, MIC by agar plate dilution method, P. mirabilis 1287; details: Proteus mirabilis, inoculum 1×10^6 cells/ml, read-out: minimal inhibitory concentration (MIC)
Method: as §1, §2

P. aeruginosa NCTC-10490 = test: antimicrobial activity in vitro, MIC by agar plate dilution method, P. aeruginosa NCTC-10490; details: Pseudomonas aeruginosa, NCTC10490, inoculum 1×10^6 cells/ml, read-out: minimal inhibitory concentration (MIC)
Method: as §1, §2

M. morganii ATCC-25830 = test: antimicrobial activity in vitro, MIC by agar plate dilution method, M. morganii ATCC-25830; details: Morganella morganii, ATCC25830, inoculum 1×10^6 cells/ml, read-out: minimal inhibitory concentration (MIC)
Method: as §1, §2

Structure (SMILES)	MIC (K. pneumoniae NCTC-9632)	MIC (S. aureus FDA-209-p)	MIC (E. coli NIHJ)	MIC (S. marcescens IFO-12648)	MIC (E. coli No. 29)	MIC (P. mirabilis 1287)	MIC (P. aeruginosa NCTC-10490)	MIC (M. morganii ATCC-25830)
CO/N=C(\C(=O)N[C@@H]1C(=O)N2C(C(=O)[O-])=C(CSc3cc[n+](CC(=O)c4ccccc4)cc3)OC[C@H]12)c1csc(N)n1 [No. 1, (6S,7S)-7-[2-(2-Aminothiazol-4-yl)-2-methoxyiminoacetamido]-3-[(1-benzoylmethyl-4-pyridinio)thiomethyl]-Δ^3 -O-2-isocephem-4-carboxylate (syn-isomer)]	0.05 µg/mL (≈ 0.0821 µM)	0.05 µg/mL (≈ 0.0821 µM)	0.05 µg/mL (≈ 0.0821 µM)	0.1 µg/mL (≈ 0.164 µM)	≤ 0.025 µg/mL	0.05 µg/mL (≈ 0.0821 µM)	1.56 µg/mL (≈ 2.56 µM)	0.05 µg/mL (≈ 0.0821 µM)
CO/N=C(\C(=O)N[C@@H]1C(=O)N2C(C(=O)[O-])=C(CSc3cc[n+](CC(=O)N4CCCC4)cc3)OC[C@H]12)c1csc(N)n1 [No. 2, (6S,7S)-7-[2-(2-Aminothiazol-4-yl)-2-methoxyiminoacetamido]-3-[[1-(1-pyrrolidinylcarbonylmethyl)-4pyridinio]thiomethyl]-Δ^3 -O-2-isocephem-4-carboxylate (syn-isomer)]	≤ 0.025 µg/mL	0.2 µg/mL (≈ 0.332 µM)	≤ 0.025 µg/mL	0.1 µg/mL (≈ 0.166 µM)	≤ 0.025 µg/mL	≤ 0.025 µg/mL	1.56 µg/mL (≈ 2.59 µM)	≤ 0.025 µg/mL
Nc1nc(/C(=N/OC2CCCC2)C(=O)N[C@@H]2C(=O)N3C(C(=O)[O-])=C(CSc4cc[n+](CC(=O)N5CCCC5)cc4)OC[C@H]23)cs1 [No. 3, (6S,7S)-7-[2-(2-Aminothiazol-4-yl)-2-cyclopentyloxyiminoacetamido]-3-[[1-(1-pyrrolidinylcarbonylmethyl)-4-pyridinio]thiomethyl]-Δ^3 -O-2-isocephem-4-carboxylic acid sulfate (syn-isomer)]	0.39 µg/mL	0.1 µg/mL	0.2 µg/mL	0.78 µg/mL	0.1 µg/mL	0.2 µg/mL	0.78 µg/mL	0.05 µg/mL
CN(C)C(=O)C[n+]1ccc(SCC2=C(C(=O)[O-])N3C(=O)[C@@H](NC(=O)/C(=N\OC4CCCC4)c4csc(N)n4)[C@H]3CO2)cc1 [No. 4, (6S,7S)-7-[2-(2-Aminothiazol-4-yl)-2-cyclopentyloxyiminoacetamido]-3-[(1-N,N-dimethylcarbamoylmethyl4-pyridinio)thiomethyl]-Δ^3 -O-2-isocephem-4-carboxylic acid sulfate (syn-isomer)]	0.39 µg/mL	0.1 µg/mL	0.2 µg/mL	1.56 µg/mL	0.1 µg/mL	0.2 µg/mL	1.56 µg/mL	0.05 µg/mL
C[n+]1ccc(SCC2=C(C(=O)[O-])N3C(=O)[C@@H](NC(=O)/C(=N\OCC(N)=O)c4csc(N)n4)[C@H]3CO2)cc1 [No. 5, (6S,7S)-7-[2-(2-Aminothiazol-4-yl)-2-carbamoylmethoxyiminoacetamido]-3-[(1-methyl-4-pyridinio)thiomethyl]-Δ^3 -O-2-isocephem-4-carboxylate (syn-isomer)]	≤ 0.025 µg/mL	0.2 µg/mL (≈ 0.365 µM)	≤ 0.025 µg/mL	0.1 µg/mL (≈ 0.183 µM)	≤ 0.025 µg/mL	≤ 0.025 µg/mL	12.5 µg/mL (≈ 22.8 µM)	≤ 0.025 µg/mL
CO/N=C(\C(=O)N[C@@H]1C(=O)N2C(C(=O)[O-])=C(CSc3cc[n+](CC(=O)N(C)C)cc3)OC[C@H]12)c1csc(N)n1 [No. 6, (6S,7S)-7-[2-(2-Aminothiazol-4-yl)-2-methoxyiminoacetamido]-3-[(1-N,N-dimethylcarbamoylmethyl-4-pyridinio)thiomethyl]-Δ^3 -O-2-isocephem-4-carboxylic acid sulfate (syn-isomer)]	≤ 0.025 µg/mL	0.2 µg/mL	≤ 0.025 µg/mL	0.2 µg/mL	≤ 0.025 µg/mL	≤ 0.025 µg/mL	3.13 µg/mL	≤ 0.025 µg/mL
CCC(=O)C[n+]1ccc(SCC2=C(C(=O)[O-])N3C(=O)[C@@H](NC(=O)/C(=N\OC4CCCC4)c4csc(N)n4)[C@H]3CO2)cc1 [No. 7, (6S,7S)-7-[2-(2-Aminothiazol-4-yl)-2-cyclopentyloxyiminoacetamido]-3-[(1-propanoylmethyl-4-pyridinio)thiomethyl] -Δ^3 -O-2-isocephem-4-carboxylic acid sulfate (syn-isomer)]	0.39 µg/mL	0.1 µg/mL	0.2 µg/mL	0.78 µg/mL	0.1 µg/mL	0.1 µg/mL	0.78 µg/mL	0.05 µg/mL
Nc1nc(/C(=N/OC2CCCC2)C(=O)N[C@@H]2C(=O)N3C(C(=O)[O-])=C(CSc4cc[n+](CC(=O)N5CCNCC5)cc4)OC[C@H]23)cs1 [No. 8, (6S,7S)-7-[2-(2-Aminothiazol-4-yl)-2-cyclopentyloxyiminoacetamido]-3-[[1-(1-piperazinylcarbonylmethyl)-4-pyridinio]thiomethyl]-Δ^3 -O-2-isocephem-4-carboxylate (syn-isomer)]	0.2 µg/mL (≈ 0.298 µM)	0.2 µg/mL (≈ 0.298 µM)	0.2 µg/mL (≈ 0.298 µM)	0.78 µg/mL (≈ 1.16 µM)	0.1 µg/mL (≈ 0.149 µM)	0.39 µg/mL (≈ 0.581 µM)	0.78 µg/mL (≈ 1.16 µM)	0.1 µg/mL (≈ 0.149 µM)
Nc1nc(/C(=N/OC2CCCC2)C(=O)N[C@@H]2C(=O)N3C(C(=O)[O-])=C(CSc4cc[n+](CC(=O)NO)cc4)OC[C@H]23)cs1 [No. 9, (6S,7S)-7-[2-(2-Aminothiazol-4-yl)-2-cyclopentyloxyiminoacetamido]-3-[(1-hydroxyaminocarbonylmethyl-4-pyridinio)thiomethyl]-Δ^3 -O-2-isocephem-4-carboxylate (syn-isomer)]	0.39 µg/mL (≈ 0.631 µM)	0.39 µg/mL (≈ 0.631 µM)	0.2 µg/mL (≈ 0.324 µM)	1.56 µg/mL (≈ 2.53 µM)	0.1 µg/mL (≈ 0.162 µM)	0.2 µg/mL (≈ 0.324 µM)	3.13 µg/mL (≈ 5.07 µM)	0.05 µg/mL (≈ 0.0809 µM)
CO/N=C(\C(=O)N[C@@H]1C(=O)N2C(C(=O)[O-])=C(CSc3cc[n+](CC(=O)N4CCOCC4)cc3)OC[C@H]12)c1csc(N)n1 [No. 10, (6S,7S)-7-[2-(2-Aminothiazol-4-yl)-2-methoxyiminoacetamido]-3-[(1-morpholinocarbonylmethyl-4pyridinio)thiomethyl]-Δ^3 -O-2-isocephem-4-carboxylate (syn-isomer)]	≤ 0.025 µg/mL	0.2 µg/mL (≈ 0.324 µM)	≤ 0.025 µg/mL	0.1 µg/mL (≈ 0.162 µM)	≤ 0.025 µg/mL	≤ 0.025 µg/mL	6.25 µg/mL (≈ 10.1 µM)	≤ 0.025 µg/mL
Nc1nc(/C(=N/OC2CCCC2)C(=O)N[C@@H]2C(=O)N3C(C(=O)[O-])=C(CSc4cc[n+](CCl)cc4)OC[C@H]23)cs1 [No. 11, (6S,7S)-7-[2-(2-Aminothiazol-4-yl)-2-cyclopentyloxyiminoacetamido]-3-[(1-chloromethyl-4-pyridinio)thiomethyl]-Δ^3 -O-2-isocephem-4-carboxylate (syn-isomer)]	0.39 µg/mL (≈ 0.658 µM)	0.1 µg/mL (≈ 0.169 µM)	0.2 µg/mL (≈ 0.337 µM)	0.78 µg/mL (≈ 1.32 µM)	0.1 µg/mL (≈ 0.169 µM)	0.2 µg/mL (≈ 0.337 µM)	1.56 µg/mL (≈ 2.63 µM)	0.05 µg/mL (≈ 0.0843 µM)
Nc1nc(/C(=N/OC2CCCC2)C(=O)N[C@@H]2C(=O)N3C(C(=O)[O-])=C(CSc4cc[n+](CC5CC5)cc4)OC[C@H]23)cs1 [No. 12, (6S,7S)-7-[2-(2-Aminothiazol-4-yl)-2-cyclopentyloxyiminoacetamido]-3-[(1-cyclopropylmethyl-4-pyridinio)thiomethyl]-Δ^3 -O-2- -isocephem-4-carboxylic acid ditrifluoroacetate (syn-isomer)]	0.2 µg/mL (≈ 0.334 µM)	0.05 µg/mL (≈ 0.0835 µM)	0.1 µg/mL (≈ 0.167 µM)	0.78 µg/mL (≈ 1.3 µM)	0.05 µg/mL (≈ 0.0835 µM)	0.1 µg/mL (≈ 0.167 µM)	0.39 µg/mL (≈ 0.651 µM)	0.05 µg/mL (≈ 0.0835 µM)
Nc1nc(/C(=N/OC2CCCC2)C(=O)N[C@@H]2C(=O)N3C(C(=O)[O-])=C(CSc4cc[n+](CCF)cc4)OC[C@H]23)cs1 [No. 13, (6S,7S)-7-[2-(2-Aminothiazol-4-yl)-2-cyclopentyloxyiminoacetamido]-3-[[1-(2-fluoroethyl)-4-pyridinio]thiomethyl]-Δ^3 -O-2-isocephem-4-carboxylate (syn-isomer)]	0.39 µg/mL (≈ 0.66 µM)	0.1 µg/mL (≈ 0.169 µM)	0.2 µg/mL (≈ 0.339 µM)	1.56 µg/mL (≈ 2.64 µM)	0.1 µg/mL (≈ 0.169 µM)	0.2 µg/mL (≈ 0.339 µM)	0.78 µg/mL (≈ 1.32 µM)	0.05 µg/mL (≈ 0.0847 µM)
CO/N=C(\C(=O)N[C@@H]1C(=O)N2C(C(=O)[O-])=C(CSc3cc[n+](CCF)cc3)OC[C@H]12)c1csc(N)n1 [No. 14, (6S,7S)-7-[2-(2-Aminothiazol-4-yl)-2-methoxyiminoacetamido]-3-[[1-(2-fluoroethyl)-4-pyridinio]thiomethyl]-Δ^3 -O-2-isocephem-4-carboxylate (syn-isomer)]	≤ 0.025 µg/mL	0.2 µg/mL (≈ 0.373 µM)	≤ 0.025 µg/mL	0.1 µg/mL (≈ 0.186 µM)	≤ 0.025 µg/mL	≤ 0.025 µg/mL	1.56 µg/mL (≈ 2.91 µM)	≤ 0.025 µg/mL
